# The source made the active and inactive calls. The rule behind the calls is not given here.
# What was measured:
# [1] = target: T1, Toll-like receptor 8 (Homo sapiens) (UniProt Q9NR97); experiment: (§1) Agonist activity at human TLR8 expressed in HEK293 cells assessed as induction of NF-kappaB activity by measuring extracellular secreted alkaline phosphatase by HEK-blue reporter gene assay; format: functional, cell-based
# T1 sequence (whole entry): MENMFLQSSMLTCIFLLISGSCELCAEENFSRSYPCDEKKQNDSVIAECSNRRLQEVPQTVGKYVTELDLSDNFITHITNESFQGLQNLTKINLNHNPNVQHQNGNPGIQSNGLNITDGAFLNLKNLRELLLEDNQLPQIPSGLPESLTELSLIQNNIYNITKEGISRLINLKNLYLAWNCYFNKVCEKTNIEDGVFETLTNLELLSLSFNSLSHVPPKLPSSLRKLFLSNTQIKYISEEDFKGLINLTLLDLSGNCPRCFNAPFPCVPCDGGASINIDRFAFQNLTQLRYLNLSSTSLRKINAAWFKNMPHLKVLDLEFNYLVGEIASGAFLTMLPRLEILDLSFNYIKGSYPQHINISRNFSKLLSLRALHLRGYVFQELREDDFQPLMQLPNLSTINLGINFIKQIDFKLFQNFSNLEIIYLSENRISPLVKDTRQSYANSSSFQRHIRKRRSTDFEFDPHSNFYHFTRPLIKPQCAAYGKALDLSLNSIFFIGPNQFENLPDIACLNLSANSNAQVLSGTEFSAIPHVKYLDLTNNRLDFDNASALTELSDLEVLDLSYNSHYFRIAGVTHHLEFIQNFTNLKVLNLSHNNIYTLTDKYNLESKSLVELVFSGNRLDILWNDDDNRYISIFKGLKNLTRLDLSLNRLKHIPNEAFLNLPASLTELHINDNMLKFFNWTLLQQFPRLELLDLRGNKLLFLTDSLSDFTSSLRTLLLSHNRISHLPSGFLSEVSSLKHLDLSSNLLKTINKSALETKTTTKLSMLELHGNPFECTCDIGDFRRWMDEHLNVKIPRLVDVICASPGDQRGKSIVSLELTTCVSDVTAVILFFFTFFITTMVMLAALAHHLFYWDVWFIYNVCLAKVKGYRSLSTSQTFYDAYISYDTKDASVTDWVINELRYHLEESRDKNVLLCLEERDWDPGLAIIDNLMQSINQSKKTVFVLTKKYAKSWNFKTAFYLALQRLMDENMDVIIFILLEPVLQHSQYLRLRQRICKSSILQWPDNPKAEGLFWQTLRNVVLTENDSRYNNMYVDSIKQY
# Toll-like receptor 8 = target: T2, Toll-like receptor 8 (Homo sapiens, UniProt Q9NR97); experiment: as §1; format: functional, cell-based; details: read-out: EC50
# T2 sequence (Q9NR97 whole entry): T1 sequence (whole entry)
# PBMC [2] = experiment: Up-regulation of CXCL gene in human PBMC cells after 2 hrs; format: cell-based
# PBMC [3] = experiment: Induction of proinflammatory cytokine release in human PBMC after 12 hrs; format: cell-based
# PBMC [4] = experiment: Induction of transcriptional signature of inflammatory gene expression in human PBMC cells after 2 hrs; format: cell-based
# PBMC [5] = experiment: Up-regulation of CCL gene in human PBMC cells after 2 hrs; format: cell-based
# Oryctolagus cuniculus = species on record: Oryctolagus cuniculus; experiment: Adjuvantic activity in New Zealand White rabbit immunized with bovine alpha-lactalbumin on day 1, 15, and 28 assessed as anti-alpha-lactalbumin IgG level in serum at 100 ug measured on day 38 by ELISA; format: functional, organism-based
# [6] = target: Toll-like receptor 3 (Homo sapiens) (UniProt O15455); experiment: Agonist activity at human TLR3 expressed in HEK293 cells assessed as induction of NF-kappaB activity by measuring extracellular secreted alkaline phosphatase up to 250 uM by HEK-blue reporter gene assay; format: functional, cell-based
# [7] = target: T3, Toll-like receptor 9 (Homo sapiens) (UniProt Q9NR96); experiment: Agonist activity at human TLR9 expressed in HEK293 cells assessed as induction of NF-kappaB activity by measuring extracellular secreted alkaline phosphatase up to 250 uM by HEK-blue reporter gene assay; format: functional, cell-based
# T3 sequence (whole entry): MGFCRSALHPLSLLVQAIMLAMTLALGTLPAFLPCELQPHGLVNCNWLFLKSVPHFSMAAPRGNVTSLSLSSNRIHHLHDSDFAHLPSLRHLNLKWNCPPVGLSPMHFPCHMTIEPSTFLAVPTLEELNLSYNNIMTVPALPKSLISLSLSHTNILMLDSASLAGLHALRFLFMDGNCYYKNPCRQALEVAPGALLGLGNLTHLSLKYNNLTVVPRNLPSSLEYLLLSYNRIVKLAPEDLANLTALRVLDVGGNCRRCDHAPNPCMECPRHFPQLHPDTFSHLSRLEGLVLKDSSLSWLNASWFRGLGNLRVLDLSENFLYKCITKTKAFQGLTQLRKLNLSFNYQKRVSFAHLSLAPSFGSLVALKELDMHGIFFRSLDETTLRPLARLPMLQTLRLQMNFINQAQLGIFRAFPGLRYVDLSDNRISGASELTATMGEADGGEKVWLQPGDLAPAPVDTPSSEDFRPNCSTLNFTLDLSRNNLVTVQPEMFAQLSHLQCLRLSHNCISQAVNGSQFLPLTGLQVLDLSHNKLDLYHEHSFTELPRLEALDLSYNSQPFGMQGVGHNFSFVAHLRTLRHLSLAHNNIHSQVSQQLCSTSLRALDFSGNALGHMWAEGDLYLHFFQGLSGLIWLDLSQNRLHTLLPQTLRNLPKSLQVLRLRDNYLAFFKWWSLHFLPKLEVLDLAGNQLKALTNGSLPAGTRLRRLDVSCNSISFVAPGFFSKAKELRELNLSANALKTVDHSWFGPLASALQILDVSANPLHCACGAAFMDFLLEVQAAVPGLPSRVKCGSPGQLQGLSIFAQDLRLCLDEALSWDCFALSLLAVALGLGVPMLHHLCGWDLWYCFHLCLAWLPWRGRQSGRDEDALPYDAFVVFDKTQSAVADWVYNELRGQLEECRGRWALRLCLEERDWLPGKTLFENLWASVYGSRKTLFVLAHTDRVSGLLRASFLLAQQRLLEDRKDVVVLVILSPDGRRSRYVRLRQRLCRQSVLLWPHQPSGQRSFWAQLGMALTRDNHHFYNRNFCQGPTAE
# [8] = target: Toll-like receptor 4 (Homo sapiens) (UniProt O00206); experiment: Agonist activity at human TLR4 expressed in HEK293 cells assessed as induction of NF-kappaB activity by measuring extracellular secreted alkaline phosphatase up to 250 uM by HEK-blue reporter gene assay; format: functional, cell-based
# [9] = target: Toll-like receptor 5 (Homo sapiens) (UniProt O60602); experiment: Agonist activity at human TLR5 expressed in HEK293 cells assessed as induction of NF-kappaB activity by measuring extracellular secreted alkaline phosphatase up to 250 uM by HEK-blue reporter gene assay; format: functional, cell-based
# [10] = target: T4, Toll-like receptor 7 (Homo sapiens) (UniProt Q9NYK1); experiment: Agonist activity at human TLR7 expressed in HEK293 cells assessed as induction of NF-kappaB activity by measuring extracellular secreted alkaline phosphatase up to 250 uM by HEK-blue reporter gene assay; format: functional, cell-based
# T4 sequence (whole entry): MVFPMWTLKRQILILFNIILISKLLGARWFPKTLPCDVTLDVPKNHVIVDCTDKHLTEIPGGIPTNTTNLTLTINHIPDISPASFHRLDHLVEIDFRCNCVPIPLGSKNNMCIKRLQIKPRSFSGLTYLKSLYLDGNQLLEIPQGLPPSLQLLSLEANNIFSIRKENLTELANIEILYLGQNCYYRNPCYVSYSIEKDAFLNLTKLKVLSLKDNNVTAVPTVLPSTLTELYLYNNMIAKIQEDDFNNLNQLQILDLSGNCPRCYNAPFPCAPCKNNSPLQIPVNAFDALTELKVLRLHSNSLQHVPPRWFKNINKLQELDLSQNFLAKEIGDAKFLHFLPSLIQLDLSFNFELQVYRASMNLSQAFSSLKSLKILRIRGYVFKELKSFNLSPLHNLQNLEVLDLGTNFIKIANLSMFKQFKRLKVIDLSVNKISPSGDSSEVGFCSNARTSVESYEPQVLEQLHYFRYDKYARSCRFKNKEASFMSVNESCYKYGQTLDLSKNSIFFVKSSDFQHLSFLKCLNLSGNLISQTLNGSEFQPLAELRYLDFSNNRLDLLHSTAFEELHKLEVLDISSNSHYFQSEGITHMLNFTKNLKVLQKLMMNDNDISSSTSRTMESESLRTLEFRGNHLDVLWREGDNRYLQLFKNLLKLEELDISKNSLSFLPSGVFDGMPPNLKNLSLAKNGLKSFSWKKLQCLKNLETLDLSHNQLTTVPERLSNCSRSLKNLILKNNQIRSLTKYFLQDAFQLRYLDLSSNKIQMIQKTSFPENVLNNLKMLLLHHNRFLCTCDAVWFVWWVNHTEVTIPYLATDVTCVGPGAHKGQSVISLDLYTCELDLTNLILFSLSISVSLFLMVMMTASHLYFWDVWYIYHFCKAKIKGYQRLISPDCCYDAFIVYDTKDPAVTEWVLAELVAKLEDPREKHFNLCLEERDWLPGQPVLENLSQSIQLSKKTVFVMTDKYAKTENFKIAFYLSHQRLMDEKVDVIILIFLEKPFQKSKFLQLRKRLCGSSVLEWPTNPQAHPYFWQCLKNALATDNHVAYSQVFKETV
# [11] = target: T1, Toll-like receptor 8 (Homo sapiens); experiment: Agonist activity at human TLR8 expressed in HEK293 cells assessed as induction of NF-kappaB activity by measuring extracellular secreted alkaline phosphatase up to 250 uM by HEK-blue reporter gene assay; format: functional, cell-based
# Toll-like receptor 3 (Homo sapiens), sequence (O15455 whole entry): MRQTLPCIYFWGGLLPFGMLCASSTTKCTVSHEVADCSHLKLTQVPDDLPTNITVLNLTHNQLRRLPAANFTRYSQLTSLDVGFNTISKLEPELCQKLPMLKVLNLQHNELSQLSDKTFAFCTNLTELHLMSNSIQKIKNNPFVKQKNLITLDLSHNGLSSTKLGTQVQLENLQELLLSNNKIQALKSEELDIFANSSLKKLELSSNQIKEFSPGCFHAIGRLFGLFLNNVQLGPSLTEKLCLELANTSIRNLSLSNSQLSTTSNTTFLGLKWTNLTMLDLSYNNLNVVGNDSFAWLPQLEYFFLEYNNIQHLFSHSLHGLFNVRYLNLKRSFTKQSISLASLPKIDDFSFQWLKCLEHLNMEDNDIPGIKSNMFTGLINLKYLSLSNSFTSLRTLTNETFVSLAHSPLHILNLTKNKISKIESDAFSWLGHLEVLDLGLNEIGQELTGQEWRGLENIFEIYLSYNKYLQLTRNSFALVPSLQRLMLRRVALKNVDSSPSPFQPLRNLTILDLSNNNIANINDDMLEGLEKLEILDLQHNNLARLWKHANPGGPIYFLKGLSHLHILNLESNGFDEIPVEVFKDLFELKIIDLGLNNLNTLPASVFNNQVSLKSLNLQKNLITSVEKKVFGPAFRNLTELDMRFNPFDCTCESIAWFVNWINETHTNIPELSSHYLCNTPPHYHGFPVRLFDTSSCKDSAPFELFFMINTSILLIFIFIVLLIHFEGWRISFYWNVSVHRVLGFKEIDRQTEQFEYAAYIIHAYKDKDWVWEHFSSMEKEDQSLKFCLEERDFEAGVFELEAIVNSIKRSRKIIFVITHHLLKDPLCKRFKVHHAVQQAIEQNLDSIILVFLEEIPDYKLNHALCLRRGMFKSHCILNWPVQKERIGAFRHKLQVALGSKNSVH
# Toll-like receptor 5 (Homo sapiens), sequence (O60602 whole entry): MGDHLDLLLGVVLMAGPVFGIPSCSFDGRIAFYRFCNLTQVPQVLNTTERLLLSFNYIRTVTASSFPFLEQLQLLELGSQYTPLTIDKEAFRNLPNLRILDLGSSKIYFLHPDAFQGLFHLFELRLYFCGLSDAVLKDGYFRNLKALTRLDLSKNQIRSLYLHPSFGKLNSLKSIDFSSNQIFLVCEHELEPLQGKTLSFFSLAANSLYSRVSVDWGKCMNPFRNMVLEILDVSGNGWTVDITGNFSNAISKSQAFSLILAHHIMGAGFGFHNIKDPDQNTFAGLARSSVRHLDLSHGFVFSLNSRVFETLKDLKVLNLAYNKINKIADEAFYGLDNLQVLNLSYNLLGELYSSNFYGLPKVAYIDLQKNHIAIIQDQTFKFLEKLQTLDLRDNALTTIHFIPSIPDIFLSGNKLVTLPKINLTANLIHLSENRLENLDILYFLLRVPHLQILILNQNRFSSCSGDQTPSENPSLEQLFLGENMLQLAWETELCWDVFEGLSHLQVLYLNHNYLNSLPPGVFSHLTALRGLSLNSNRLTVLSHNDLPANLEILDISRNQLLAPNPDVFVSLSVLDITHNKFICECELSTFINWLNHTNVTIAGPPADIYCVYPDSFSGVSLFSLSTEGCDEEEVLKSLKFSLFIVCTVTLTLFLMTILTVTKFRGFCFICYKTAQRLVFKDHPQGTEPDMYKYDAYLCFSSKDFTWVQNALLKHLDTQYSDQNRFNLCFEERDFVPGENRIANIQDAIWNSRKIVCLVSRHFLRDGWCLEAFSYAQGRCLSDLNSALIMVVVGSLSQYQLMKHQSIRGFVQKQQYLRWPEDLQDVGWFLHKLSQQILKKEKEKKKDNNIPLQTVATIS
# Toll-like receptor 4 (Homo sapiens), sequence (O00206 whole entry): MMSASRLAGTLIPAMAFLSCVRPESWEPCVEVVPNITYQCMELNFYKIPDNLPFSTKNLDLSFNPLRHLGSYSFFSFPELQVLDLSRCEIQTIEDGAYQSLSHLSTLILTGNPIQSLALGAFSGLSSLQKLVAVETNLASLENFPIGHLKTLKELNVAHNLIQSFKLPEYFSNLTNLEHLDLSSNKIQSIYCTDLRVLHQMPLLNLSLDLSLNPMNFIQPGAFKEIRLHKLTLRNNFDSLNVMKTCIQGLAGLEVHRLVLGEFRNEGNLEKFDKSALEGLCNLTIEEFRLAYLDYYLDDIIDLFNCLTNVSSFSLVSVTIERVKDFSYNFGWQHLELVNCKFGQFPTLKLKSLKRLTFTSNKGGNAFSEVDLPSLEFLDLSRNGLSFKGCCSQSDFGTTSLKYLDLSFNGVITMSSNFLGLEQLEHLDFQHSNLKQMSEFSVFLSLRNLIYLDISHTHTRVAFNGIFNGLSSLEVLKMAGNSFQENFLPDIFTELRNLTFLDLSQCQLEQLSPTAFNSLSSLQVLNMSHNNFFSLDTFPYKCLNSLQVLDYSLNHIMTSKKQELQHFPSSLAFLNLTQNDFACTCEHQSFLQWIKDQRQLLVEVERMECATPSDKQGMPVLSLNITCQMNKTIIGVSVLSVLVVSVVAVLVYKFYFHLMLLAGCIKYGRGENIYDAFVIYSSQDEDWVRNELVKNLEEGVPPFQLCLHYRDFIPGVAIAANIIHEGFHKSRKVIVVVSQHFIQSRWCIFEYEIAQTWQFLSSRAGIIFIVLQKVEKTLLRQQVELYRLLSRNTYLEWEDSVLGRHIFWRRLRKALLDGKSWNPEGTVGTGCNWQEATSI
Activity [1],EC50 (Toll-like receptor 8) [µM],Activity [6],Activity [7],Activity [8],Activity [9],Activity [10],Activity [11],SMILES,Activity (PBMC [2]),Activity (PBMC [3]),Activity (PBMC [4]),Activity (PBMC [5]),Activity (Oryctolagus cuniculus)
Dose-dependent effect,9.38,–,–,–,–,–,–,CCCCNc1oc2c(C)ncc(CO)c2c1Nc1ccccn1,–,Non-toxic,–,–,–
Dose-dependent effect,4.91,–,–,–,–,–,–,Cc1ncc(CO)c2c(Nc3ccccn3)c(NCc3ccccc3)oc12,–,Non-toxic,–,–,–
–,–,inactive,inactive,inactive,inactive,inactive,inactive,Oc1ccccc1-c1nc2cnccn2c1NC1CCCCC1,–,–,–,–,–
–,–,inactive,inactive,inactive,inactive,inactive,inactive,CCCCc1nc2c(N)nccn2c1Nc1ccc(OC)cc1,–,–,–,–,–
–,–,inactive,inactive,inactive,inactive,inactive,inactive,CCCCc1nc2c(N)nccn2c1NCc1ccccc1,–,–,–,–,–
–,–,inactive,inactive,inactive,inactive,inactive,inactive,c1cc(-c2nc3cnccn3c2NC2CCCCC2)ccn1,–,–,–,–,–
–,–,inactive,inactive,inactive,inactive,inactive,inactive,CC(C)(C)Nc1c(-c2ccccc2O)nc2cnccn12,–,–,–,–,–
–,–,inactive,inactive,inactive,inactive,inactive,inactive,Nc1nccn2c(NC3CCCCC3)c(-c3ccccc3)nc12,–,–,–,–,–
–,–,inactive,inactive,inactive,inactive,inactive,inactive,c1ccc(CNc2c(-c3ccccc3)nc3ccccn23)cc1,–,–,–,–,–

# The next lines start with the compound.
SMILES,Activity [1],EC50 (Toll-like receptor 8) [µM],Activity [6],Activity [7],Activity [8],Activity [9],Activity [10],Activity [11],Activity (PBMC [2]),Activity (PBMC [3]),Activity (PBMC [4]),Activity (PBMC [5]),Activity (Oryctolagus cuniculus)
Cc1ncc(CO)c2c(Nc3ccccn3)c(NC[Si](C)(C)C)oc12,Dose-dependent effect,4.99,–,–,–,–,–,–,Toxic,Non-toxic,Non-toxic,Toxic,–
CCCCCNc1oc2c(C)ncc(CO)c2c1Nc1ccccn1,Dose-dependent effect,5.81,–,–,–,–,–,–,Toxic,Non-toxic,Non-toxic,Toxic,Active
CCCc1nc2c(N)nc3ccccc3c2s1,–,–,–,–,–,–,–,–,–,Toxic,–,–,–
c1ccc(-c2nc3ccccn3c2NC2CCCCC2)cc1,–,–,inactive,inactive,inactive,inactive,inactive,inactive,–,–,–,–,–
Oc1ccccc1-c1nc2ccccn2c1NCc1ccccc1,–,–,inactive,inactive,inactive,inactive,inactive,inactive,–,–,–,–,–
Oc1ccccc1-c1nc2cnccn2c1NCc1ccccc1,–,–,inactive,inactive,inactive,inactive,inactive,inactive,–,–,–,–,–
c1ccn2c(NC3CCCCC3)c(-c3ccncc3)nc2c1,–,–,inactive,inactive,inactive,inactive,inactive,inactive,–,–,–,–,–
CC(C)(C)Nc1c(-c2ccncc2)nc2cnccn12,–,–,inactive,inactive,inactive,inactive,inactive,inactive,–,–,–,–,–

# — ChEMBL document CHEMBL2176888, “Structure-activity relationships in human Toll-like receptor 8-active 2,3-diamino-furo[2,3-c]pyridines” (J Med Chem, 2012)
